Legend:
T7 enzyme = T7 enzyme (Escherichia phage T7, UniProt P00573); assay: Evaluation of mRNA yield by in vitro transcription (IVT) with cap analogs; format: biochemical; details: input DNA 5 μg
Description: mRNA was produced using in vitro transcription (IVT) technology with cap analogs of Compound (25), (26) and (33) to (35) of the disclosure, as well as the TriLink CleanCap cap analog (product number #N-7113). First, the DNA template plasmid required for IVT was prepared, followed by an enzymatic reaction using T7 enzyme to synthesize mRNA.

40-nt mRNAs = assay: Capping efficiency evaluation (3) using IP-RP-UPLC, 40-nt mRNAs from IVT; format: biochemical; details: 40-nt mRNAs by IVT with T7 enzyme, UV 260 nm
Description: mRNA was produced using in vitro transcription (IVT) technology with cap analogs of Compound (25), (33) to (35) of the disclosure herein, as well as the TriLink CleanCap cap analog (product number #N-7113). The DNA template used in this process consisted of 40-nucleotide (nt) fragments, and mRNA was synthesized through an enzymatic reaction using T7 enzyme to produce 40-nt mRNAs.
Nuclease-free water was added to the lyophilized carrier RNA to obtain an RNA stock solution (with concentration of 2 μg/L). Deionized water (0.1 mL) and RNA stock solution (10 μL) were then mixed with the 40-nt mRNAs obtained by aforementioned cap analogs to obtain the samples.
Next, 10 μL of each sample was injected into a column and analyzed using ion-pair reversed-phase ultra-performance liquid chromatography (IP-RP UPLC) (45 minutes) according to the solution gradient listed in Table 7. The absorbance value of UV 260 nm was monitored, and the capping efficiency (%) was evaluated based on the obtained results, as shown in Table 8. The column used for the analysis was an oligonucleotide column (Acquity Premier Oligonucleotide C18, manufactured and sold by Waters Corp). A water-based buffer solution (triethylammonium acetate buffer, pH 7.0, concentration 100 mM) was used as Solution A, while an acetonitrile (ACN)-based buffer solution (a mixture of Solution A and acetonitrile in a 3:1 volume ratio) was used as Solution B.

HEK293 cells = assay: Transfection efficiency evaluation (luciferase activity); format: cell-based; details: luciferase mRNA capped with the cap analog, 50 ng per well, 5 hours, compared with Jena-ARCA
Description: Nuclease-free water was added to the lyophilized carrier RNA to obtain an RNA stock solution (with concentration of 2 μg/L). Next, deionized water (0.1 mL) and RNA stock solution (10 μL) were mixed with cap analogs (compound (3), compounds (25), (33) to (35), and Jena-ARCA capping analog (number #NU-855L, commercially available from Jena Bioscience)) individually to obtain the samples.
HEK293 cells were seeded at 4×10^4 cells per well in a 96-well culture plate and cultured for 24 hours for attachment. Next, each well was treated with transfection reagent (catalog #Lipofectamine MessengerMax, commercially available from Thermo Fisher, 0.3 μL per well) and samples (50 ng per well). The cells were incubated in a 37° C. incubator with 5% carbon dioxide for 5 hours. Subsequently, 100 μL of signal-activating fluorescence detection reagent (One-Glo Luciferase) was added to each well and incubated at room temperature for 5 minutes to measure luciferase activity. Then, 100 μL of the reaction mixture was pipetted and the fluorescence values were recorded using a microplate reader (GloMax Microplate Reader).

[1] = test system: HEK293 (RIG-I+)-IFNβ-fLuc cells; assay: Cell immunogenicity evaluation (luciferase reporter); format: cell-based; details: luciferase mRNA capped with the cap analog, 200 ng per well, 5 hours, compared with Jena-ARCA
Description: HEK293 (RIG-I^+)-IFNβ-fLuc cells were seeded at 1×10^4 cells per well in a 96-well culture plate and cultured for 24 hours for attachment. Each well was treated with transfection reagent (catalog #Lipofectamine MessengerMax, commercially available from Thermo Fisher, 0.15 μL per well) and samples (200 ng per well). The cells were incubated in a 37° C. incubator with 5% carbon dioxide for 5 hours. Next, 100 µL of signal-activating fluorescence detection reagent (One-Glo Luciferase) was added to each well and incubated at room temperature for 5 minutes to measure luciferase activity. Next, 180 μL of the reaction mixture was pipetted, and the fluorescence values were recorded using a microplate reader (GloMax Microplate Reader).

carrier RNA [2] = assay: Capping efficiency evaluation (1) using anti-cap antibody; details: Anti-7-methylguanosine (m7G)-Cap mAb, compared with commercially available ARCA
Description: Nuclease-free water was added into the lyophilized carrier RNA to obtain an RNA stock solution (with a concentration of 2 μg/L). Next, the RNA stock solution with various cap analogs (Compound (3) and Jena-ARCA cap analog, with trade number #NU-855L, commercially available from Jena Bioscience) was heated individually at 80° C. for 2 minutes, and then cooled at 0° C. for 5 minutes. Next, the result was placed on a nitrocellulose membrane and exposed to UV illumination to obtain a crosslinked RNA sample.
Then, 2.5% skim milk solution was added to block the nitrocellulose membrane with crosslinked RNA sampleat room temperature for 30 minutes. Thereafter, the primary antibody (Anti-7-methylguanosine (m7G)-Cap mAb) was diluted with the 2.5% skim milk solution and incubated at room temperature for 1 hour. Next, the sample was washed three times with TBST buffer (10 minutes each time). The result was reacted with chemiluminescent reagent (Femto) for 1-3 minutes. Finally, an image analysis of the result was performed via a chemiluminescent imaging system (Fujifilm LAS 4000).

carrier RNA [3] = assay: Capping efficiency evaluation (2) using IP-RP-UPLC (1); details: UV260
Description: Nuclease-free water was added into the lyophilized carrier RNA to obtain an RNA stock solution (with a concentration of 2 μg/L). Next, deionized water (0.1 mL) and RNA stock solution (10 μL) were mixed with cap analogs (compound (3) and Jena-ARCA cap analog (product number #NU-855L, commercially available from Jena Bioscience)) individually to obtain the samples.
Next, the sample (10 μL) was injected into a column to perform ion-pair reverse-phase ultra-performance liquid chromatography (IP-RP UPLC) using the solution gradient outlined in Table 6 (45 minutes). The absorbance at the UV260 wavelength was monitored. The column used was an oligonucleotide column (Acquity Premier Oligonucleotide C18, manufactured and sold by Waters Corp). A water-based buffer solution (triethylamine acetate buffer, pH 7.0, concentration 100 mM) was used as Solution A, and an acetonitrile (ACN)-based buffer solution (composed of Solution A and ACN in a 3:1 volume ratio) was used as Solution B.

Sequence of T7 enzyme (P00573 whole entry): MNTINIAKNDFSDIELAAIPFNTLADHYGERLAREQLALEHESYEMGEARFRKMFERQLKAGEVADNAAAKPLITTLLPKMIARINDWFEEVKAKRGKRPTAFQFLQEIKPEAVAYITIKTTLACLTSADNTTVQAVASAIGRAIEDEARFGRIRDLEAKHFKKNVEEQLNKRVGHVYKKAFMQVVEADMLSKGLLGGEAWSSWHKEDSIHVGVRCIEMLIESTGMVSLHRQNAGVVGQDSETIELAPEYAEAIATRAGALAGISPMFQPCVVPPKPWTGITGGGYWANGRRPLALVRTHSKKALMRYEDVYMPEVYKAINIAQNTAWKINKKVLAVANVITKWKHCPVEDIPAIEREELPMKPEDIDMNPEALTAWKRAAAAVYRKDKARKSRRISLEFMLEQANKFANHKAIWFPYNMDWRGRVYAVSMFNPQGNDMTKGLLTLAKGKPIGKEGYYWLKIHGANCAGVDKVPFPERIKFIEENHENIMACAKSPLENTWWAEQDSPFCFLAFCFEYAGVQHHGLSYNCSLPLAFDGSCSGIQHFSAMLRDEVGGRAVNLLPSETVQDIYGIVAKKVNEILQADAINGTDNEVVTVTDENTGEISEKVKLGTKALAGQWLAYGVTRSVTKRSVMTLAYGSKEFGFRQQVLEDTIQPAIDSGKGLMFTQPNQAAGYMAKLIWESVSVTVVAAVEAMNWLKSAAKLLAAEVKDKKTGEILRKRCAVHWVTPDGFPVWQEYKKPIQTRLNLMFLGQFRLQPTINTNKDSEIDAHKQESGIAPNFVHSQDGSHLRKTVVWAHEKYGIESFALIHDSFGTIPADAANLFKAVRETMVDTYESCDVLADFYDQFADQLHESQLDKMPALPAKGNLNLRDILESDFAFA

| immune response (luciferase activity) [1] | Compound | mRNA (T7 enzyme) [µg] | Capping efficiency (%) (40-nt mRNAs) | nucleic acid translation and protein expression (luciferase activity) (HEK293 cells) | capping capability (chemiluminescent image analysis) (carrier RNA [2]) | capping efficiency (carrier RNA [3]) |
| --- | --- | --- | --- | --- | --- | --- |
| – | CNc1ncnc2c1ncn2[C@@H]1O[C@H](COP(=O)(O)OP(=O)(O)OP(=O)(O)OC[C@@]23CN(S(C)(=O)=O)C([C@H](n4c[n+](C)c5c(=O)[nH]c(N)nc54)O2)[C@H]3OC)C(OP(=O)(O)OC[C@H]2O[C@@H](n3cnc4c(=O)[nH]c(N)nc43)[C@@H](O)C2O)[C@@H]1OC (stereo partly shown) [Compound (35)] | 138 | 81.4 | – | – | – |
| lower immune response | COC1[C@@H]2OC[C@]1(COP(=O)(O)OP(=O)(O)OP(=O)(O)OC[C@H]1O[C@@H](n3cnc4c(=O)[nH]c(N)nc43)[C@@H](O)C1O)O[C@H]2n1c[n+](C)c2c(=O)[nH]c(N)nc21 (stereo partly shown) [Compound (3)] | – | – | superior nucleic acid translation and protein expression | comparable to that of commercially available ARCA | approximately 60.8% |
| – | CO[C@H]1[C@@H](O)[C@H](n2c[n+](C)c3c(=O)[nH]c(N)nc32)O[C@@H]1COP(=O)(O)OP(=O)(O)OP(=O)(O)OC[C@H]1O[C@@H](n2cnc3c(=O)[nH]c(N)nc32)[C@H](O)[C@@H]1O [Jena-ARCA, reference compound] | – | – | – | – | approximately 63% |
| – | CO[C@@H]1C2OC[C@]1(COP(=O)(O)OP(=O)(O)OP(=O)(O)OC[C@H]1O[C@@H](n3cnc4c(N)ncnc43)[C@@H](OC)C1OP(=O)(O)OC[C@H]1O[C@@H](n3cnc4c(=O)[nH]c(N)nc43)[C@@H](O)C1O)O[C@H]2n1c[n+](C)c2c(=O)[nH]c(N)nc21 (stereo partly shown) [Compound (33)] | 134 | 100 | – | – | – |
| – | COC1[C@@H](COP(=O)(O)OP(=O)(O)OP(=O)(O)OC[C@]23CN(S(C)(=O)=O)[C@@H](C2OP(=O)(O)OC[C@H]2O[C@@H](n4cnc5c(=O)[nH]c(N)nc54)[C@@H](O)C2O)[C@H](n2cnc4c(N)ncnc42)O3)O[C@@H](n2c[n+](C)c3c(=O)[nH]c(N)nc32)[C@H]1O (stereo partly shown) [Compound (26)] | 95 | – | – | – | – |
| – | CO[C@@H]1C(O)[C@H](n2c[n+](C)c3c(=O)[nH]c(N)nc32)O[C@@H]1COP(=O)(O)OP(=O)(O)OP(=O)(O)OC[C@]12CN(C)[C@@H](C1OP(=O)(O)OC[C@H]1O[C@@H](n3cnc4c(=O)[nH]c(N)nc43)[C@@H](O)C1O)[C@H](n1cnc3c(N)ncnc31)O2 (stereo partly shown) [Compound (25)] | 167 | 71.3 | superior nucleic acid translation and protein expression | – | – |
